Test results reported in patent US12157730B2, “Heteroaryl derivative, method for producing same, and pharmaceutical composition comprising same as effective component” (VORONOI INC., priority 2019, dated 2024).

Tests used:
[1] = target: T1, Ba/F3 cell EGFR L858R/T790M (Homo sapiens, UniProt P00533, L858R/T790M); assay: Ba/F3 cell proliferation suppression, EGFR L858R/T790M; type: cell-based; settings: 72 hours after treatment, CellTiter-Glo
T1 construct: expressed in transfected cells; host or cells: Ba/F3
Summary of the method: (§1)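 72 h compound exposure, 0.3 nM–50 um (12 points, 3:1 dilution in DMSO); viability by CellTiter-Glo luminescence. Ba/F3 medium: RPMI-1640, 10% FBS, 5 ng/ml IL-3, 1 ug/ml puromycin for transduced cells. GI50 vs control, n=3.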

[2] = tested on: Ba/F3 cell EGFR Del19/T790M; assay: Ba/F3 cell proliferation suppression, EGFR Del19/T790M; type: cell-based; settings: 72 hours after treatment, CellTiter-Glo
Summary of the method: as §1

Ba/F3 cell EGFR L858R = target: T2, Ba/F3 cell EGFR L858R (Homo sapiens, UniProt P00533, L858R); assay: Ba/F3 cell proliferation suppression, EGFR L858R; type: cell-based; settings: 72 hours after treatment, CellTiter-Glo
T2 construct: expressed in transfected cells; host or cells: Ba/F3
Summary of the method: as §1

[3] = target: T3, Ba/F3 cell EGFR Exon20 ins FQEA (Homo sapiens, UniProt P00533, INS763FQEA); assay: Ba/F3 cell proliferation suppression, EGFR Exon20 ins FQEA; type: cell-based; settings: 72 hours after treatment, CellTiter-Glo
T3 construct: expressed in transfected cells; host or cells: Ba/F3
Method: (§2) The following experiment was carried out to evaluate the suppression activity of the compounds according to the present invention against proliferation of Ba/F3 and lung cancer cells which express EGFR mutations.
(§3) Of the cancer cell lines expressing the EGFR gene, A549 was cultured after adding 10% FBS (HyClone) to DMEM (Invitrogen), and RPMI-1640 (Invitrogen) with 10% FBS was used for the other cancer cells. For the Ba/F3 cells, RPMI-1640 with 10% FBS and 5 ng/ml IL-3 (R&D Systems) was used. The transduced Ba/F3 cells were cultured by adding 1 ug/ml puromycin (Invitrogen) to the same medium.
(§4) 24 hours before treatment with the compounds, 3000 to 5000 cells were distributed into each well of a white clear bottom 96 well plate (Corning). The compounds were diluted in dimethylsulfoxide (dilution ratio 3:1; 12 concentrations total) and injected 0.5 ul each for a final concentration of 0.3 nM to 50 um. As for measurement of live cells, 72 hours after treatment with the compounds, a CellTiter-Glo luminescent cell-viability reagent (Promega) was used to store the cells at room temperature for 10 minutes, followed by measurement of luminescence using a reader (SynergyNeo, Biotek). Each test was repeated three times.
(§5) The result was calculated as a cell growth ratio (%) compared to a control. The program GraphPad Prism version 5.0 was used to draw the graphs and calculate the GI50 values.

H1975 = assay: Lung cancer cell proliferation suppression, H1975; type: cell-based; settings: Homo sapiens, NCI-H1975; 72 hours after treatment, CellTiter-Glo
Method: as §2, §3, §4, §5

[4] = tested on: scanMAX kinase panel (EGFR mutant, ERBB2, ERBB4); assay: DiscoverX (eurofin) KINOMEscan (scanMAX platform) kinase profiling; type: binding; settings: for suppression activity against the EGFR mutant and ERBB2 and ERBB4: KINOMEscan scanMAX kinase profiling
Excerpt: It was confirmed that the above example compounds had high selectivity against EGFR series genes. Accordingly, these can be useful in the treating of cancers wherein this kinase is expressed. In particular, as they have substantially outstanding lung cancer cell line proliferation suppression, they can be useful in the treatment of lung cancer, breast cancer, and brain cancer.

[5] = target: T4, Ba/F3 cell EGFR Exon20 ins ASV (Homo sapiens, UniProt P00533, INS769ASV); assay: Ba/F3 cell proliferation suppression, EGFR Exon20 ins ASV; type: cell-based; settings: 72 hours after treatment, CellTiter-Glo
T4 construct: expressed in transfected cells; host or cells: Ba/F3
Summary of the method: as §1

[6] = tested on: Ba/F3 cell EGFR Exon20 ins H; assay: Ba/F3 cell proliferation suppression, EGFR Exon20 ins H; type: cell-based; settings: 72 hours after treatment, CellTiter-Glo
Method: as §2, §3, §4, §5

[7] = Cancer cell proliferation suppression, A549; type: cell-based; settings: A459; 72 hours after treatment, CellTiter-Glo
Method: as §2, §3, §4, §5

[8] = target: T5, Ba/F3 cell EGFR Exon20 ins NPH (Homo sapiens, UniProt P00533, INS773NPH); assay: Ba/F3 cell proliferation suppression, EGFR Exon20 ins NPH; type: cell-based; settings: for GI50: 72 hours after treatment, CellTiter-Glo; for Ba/F3 (NPH) Activity: GI50 class, Ba/F3 cell line with NPH inserted at Exon20 of EGFR, 72 hours
T5 construct: expressed in transfected cells; host or cells: Ba/F3
Summary of the method: as §1

[9] = target: T6, Ba/F3 cell EGFR Exon20 ins SVD (Homo sapiens, UniProt P00533, INS770SVD); assay: Ba/F3 cell proliferation suppression, EGFR Exon20 ins SVD; type: cell-based; settings: 72 hours after treatment, CellTiter-Glo
T6 construct: expressed in transfected cells; host or cells: Ba/F3
Method: as §2, §3, §4, §5

Ba/F3 cell naive = assay: Ba/F3 cell proliferation suppression, naive; type: cell-based; settings: Mus musculus, BaF3; 72 hours after treatment, CellTiter-Glo
Summary of the method: as §1

[10] = target: T7, Ba/F3 cell HER2 Exon20 ins YVMA (Homo sapiens, UniProt P04626, INS775YVMA); assay: Ba/F3 cell proliferation suppression, HER2 Exon20 ins YVMA; type: cell-based; settings: 72 hours after treatment, CellTiter-Glo
T7 construct: expressed in transfected cells; host or cells: Ba/F3
T7 sequence (P04626 with tags, fused parts or gaps INS775YVMA): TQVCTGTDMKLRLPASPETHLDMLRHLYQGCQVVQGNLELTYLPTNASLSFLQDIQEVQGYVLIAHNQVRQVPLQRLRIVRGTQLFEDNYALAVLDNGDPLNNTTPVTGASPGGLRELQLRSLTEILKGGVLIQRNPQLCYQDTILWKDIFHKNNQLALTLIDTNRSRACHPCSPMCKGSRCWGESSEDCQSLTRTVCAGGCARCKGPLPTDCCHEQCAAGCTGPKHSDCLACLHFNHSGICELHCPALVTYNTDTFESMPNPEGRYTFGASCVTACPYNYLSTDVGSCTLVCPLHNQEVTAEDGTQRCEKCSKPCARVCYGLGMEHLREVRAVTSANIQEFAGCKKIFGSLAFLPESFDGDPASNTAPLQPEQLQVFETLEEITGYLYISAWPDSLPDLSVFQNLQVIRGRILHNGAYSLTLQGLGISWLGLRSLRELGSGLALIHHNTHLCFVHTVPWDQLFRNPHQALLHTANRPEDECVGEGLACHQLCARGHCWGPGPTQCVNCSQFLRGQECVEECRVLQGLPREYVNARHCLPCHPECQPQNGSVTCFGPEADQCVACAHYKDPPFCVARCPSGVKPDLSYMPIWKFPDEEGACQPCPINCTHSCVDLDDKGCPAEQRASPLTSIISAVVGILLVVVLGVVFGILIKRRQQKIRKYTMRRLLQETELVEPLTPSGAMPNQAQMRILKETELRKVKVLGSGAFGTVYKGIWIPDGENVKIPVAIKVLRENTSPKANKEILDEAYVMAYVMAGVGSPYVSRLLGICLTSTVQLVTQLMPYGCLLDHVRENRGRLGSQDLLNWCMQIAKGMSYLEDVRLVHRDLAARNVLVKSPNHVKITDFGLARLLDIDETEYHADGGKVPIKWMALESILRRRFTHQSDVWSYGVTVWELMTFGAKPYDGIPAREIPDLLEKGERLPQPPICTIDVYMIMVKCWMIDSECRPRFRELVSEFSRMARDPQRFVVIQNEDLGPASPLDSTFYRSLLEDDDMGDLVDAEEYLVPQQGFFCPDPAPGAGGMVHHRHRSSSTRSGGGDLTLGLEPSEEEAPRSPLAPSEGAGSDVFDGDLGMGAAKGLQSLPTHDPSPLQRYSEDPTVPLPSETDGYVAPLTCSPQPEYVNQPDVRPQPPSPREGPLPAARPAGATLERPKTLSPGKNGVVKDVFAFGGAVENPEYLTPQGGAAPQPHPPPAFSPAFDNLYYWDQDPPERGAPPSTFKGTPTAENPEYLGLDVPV
Method: as §2, §3, §4, §5

PC9 = assay: Lung cancer cell proliferation suppression, PC9; type: cell-based; settings: Homo sapiens, PC-9; 72 hours after treatment, CellTiter-Glo
Method: as §2, §3, §4, §5

PC9GR = assay: Lung cancer cell proliferation suppression, PC9GR; type: cell-based; settings: 72 hours after treatment, CellTiter-Glo
Method: as §2, §3, §4, §5

SMILES	GI50 [1] [µM]	GI50 [2] [µM]	GI50 (Ba/F3 cell EGFR L858R) [µM]	GI50 [3] [µM]	GI50 (H1975) [nM]	% inhibition of scanMAX Kinase profiling ([4]; EGFR(E746-A750del)) [%]	% inhibition of scanMAX Kinase profiling ([4]; EGFR(G719C)) [%]	% inhibition of scanMAX Kinase profiling ([4]; EGFR(G719S)) [%]	% inhibition of scanMAX Kinase profiling ([4]; EGFR(L747-E749del, A750P)) [%]	% inhibition of scanMAX Kinase profiling ([4]; EGFR(L747-T751del.Sins)) [%]	GI50 [5] [µM]	GI50 [6] [µM]	GI50 [7] [nM]	GI50 [8] [µM]	Ba/F3 (NPH) Activity [8]	GI50 [9] [µM]	GI50 (Ba/F3 cell naive) [µM]	GI50 [10] [µM]	GI50 (PC9) [nM]	GI50 (PC9GR) [nM]	other results
C=CC(=O)Nc1cc(Nc2cc(N3OCC[C@@H]3c3ccccc3)ncn2)c(OC)cc1N(C)CCN(C)C [Example 4]	< 0.05	< 0.05	< 0.05	< 0.05	28	100	100	100	97	100	< 0.05	< 0.05	> 15000	< 0.05	A (GI50 < 50 nM)	< 0.05	≥ 5	< 0.05	1	20	% inhibition of scanMAX Kinase profiling ([4]; EGFR(L858R)): 100%; % inhibition of scanMAX Kinase profiling ([4]; EGFR(L858R.T790M)): 96%; % inhibition of scanMAX Kinase profiling ([4]; EGFR(L861q)): 100%; % inhibition of scanMAX Kinase profiling ([4]; EGFR(S752-I759del)): 100%; % inhibition of scanMAX Kinase profiling ([4]; EGFR(T790M)): 99%; % inhibition of scanMAX Kinase profiling ([4]; ERBB2): 100%; % inhibition of scanMAX Kinase profiling ([4]; ERBB4): 100%; suppression activity against the EGFR mutant and ERBB2 and ERBB4 [4]: high suppression activity
C=CC(=O)Nc1cc(Nc2cc(N3OCC[C@@H]3c3ccccc3)ncn2)c(OC)cc1N1CCN(C2CCN(C)CC2)CC1 [Example 10]	< 0.05	< 0.05	< 0.05	< 0.05	13						< 0.05	< 0.05	> 15000	< 0.05	A (GI50 < 50 nM)	< 0.05	≥ 5	< 0.05	14	10	
C=CC(=O)Nc1cc(Nc2cc(N3OCC[C@@H]3c3ccccc3)ncn2)ccc1N1CCN(C)CC1 [Example 29, N-(2-(4-methylpiperazine-1-yl)-5-((6-((R)-3-phenylisoxazolidine-2-yl)pyrimidine-4-yl)amino)phenyl) acrylamide]	< 0.05	< 0.05	< 0.05	< 0.05							< 0.05	< 0.05		< 0.05	A (GI50 < 50 nM)	< 0.05	≥ 5	< 0.05			
C=CC(=O)Nc1cc(Nc2cc(N3OCC[C@@H]3c3ccccc3)ncn2)ccc1N(C)CCN(C)C [Example 28]	< 0.05	< 0.05	< 0.05	< 0.05							< 0.05	< 0.05		< 0.05	A (GI50 < 50 nM)	< 0.05	0.5 to 5	< 0.05			

More lines, main results first:

GI50 [1] [µM]	GI50 [2] [µM]	GI50 (Ba/F3 cell EGFR L858R) [µM]	GI50 [3] [µM]	GI50 (H1975) [nM]	% inhibition of scanMAX Kinase profiling ([4]; EGFR(E746-A750del)) [%]	% inhibition of scanMAX Kinase profiling ([4]; EGFR(G719C)) [%]	% inhibition of scanMAX Kinase profiling ([4]; EGFR(G719S)) [%]	% inhibition of scanMAX Kinase profiling ([4]; EGFR(L747-E749del, A750P)) [%]	% inhibition of scanMAX Kinase profiling ([4]; EGFR(L747-T751del.Sins)) [%]	GI50 [5] [µM]	GI50 [6] [µM]	GI50 [7] [nM]	GI50 [8] [µM]	Ba/F3 (NPH) Activity [8]	GI50 [9] [µM]	GI50 (Ba/F3 cell naive) [µM]	GI50 [10] [µM]	GI50 (PC9) [nM]	GI50 (PC9GR) [nM]	SMILES	other results
< 0.05	< 0.05	< 0.05	< 0.05	6	100	100	100	100	100	< 0.05	< 0.05	> 15000	< 0.05	A (GI50 < 50 nM)	< 0.05	≥ 5	< 0.05	1	4	C=CC(=O)Nc1cc(Nc2cc(N3OCC[C@@H]3c3ccccc3)ncn2)c(OC)cc1N1CCC(N2CCN(C)CC2)CC1 [Example 9]	% inhibition of scanMAX Kinase profiling ([4]; EGFR(L858R)): 100%; % inhibition of scanMAX Kinase profiling ([4]; EGFR(L858R.T790M)): 96%; % inhibition of scanMAX Kinase profiling ([4]; EGFR(L861q)): 100%; % inhibition of scanMAX Kinase profiling ([4]; EGFR(S752-I759del)): 100%; % inhibition of scanMAX Kinase profiling ([4]; EGFR(T790M)): 99%; % inhibition of scanMAX Kinase profiling ([4]; ERBB2): 100%; % inhibition of scanMAX Kinase profiling ([4]; ERBB4): 100%; suppression activity against the EGFR mutant and ERBB2 and ERBB4 [4]: high suppression activity
< 0.05	< 0.05	< 0.05	< 0.05	13						< 0.05	< 0.05	> 15000	< 0.05	A (GI50 < 50 nM)	< 0.05	≥ 5	< 0.05	7	6	C=CC(=O)Nc1cc(Nc2cc(N3OCC[C@@H]3c3ccccc3)ncn2)c(OC)cc1N1CCN(CC)CC1 [Example 15, N-(2-(4-ethylpiperazine-1-yl)-4-methoxy-5-((6-((R)-phenylisoxazolidine-2-yl)pyrimidine-4-yl)amino)phenyl) acrylamide]	
< 0.05	< 0.05	< 0.05	< 0.05	60	100	100	100	100	100	< 0.05	< 0.05	> 15000	< 0.05	A (GI50 < 50 nM)	< 0.05	≥ 5	< 0.05	1	32	C=CC(=O)Nc1cc(Nc2cc(N3OCC[C@@H]3c3ccccc3)ncn2)c(OC)cc1N1CCN(C)CC1 [Example 6, N-(4-methoxy-2-(4-methylpiperazine-1-yl)-5-((6-((R)-3-phenylisoxazolidine-2-yl)pyrimidine-4-yl)amino)phenyl) acrylamide]	% inhibition of scanMAX Kinase profiling ([4]; EGFR(L858R)): 100%; % inhibition of scanMAX Kinase profiling ([4]; EGFR(L858R.T790M)): 85%; % inhibition of scanMAX Kinase profiling ([4]; EGFR(L861q)): 100%; % inhibition of scanMAX Kinase profiling ([4]; EGFR(S752-I759del)): 96%; % inhibition of scanMAX Kinase profiling ([4]; EGFR(T790M)): 100%; % inhibition of scanMAX Kinase profiling ([4]; ERBB2): 100%; % inhibition of scanMAX Kinase profiling ([4]; ERBB4): 100%; suppression activity against the EGFR mutant and ERBB2 and ERBB4 [4]: high suppression activity
< 0.05	< 0.05	< 0.05	< 0.05	8						< 0.05	< 0.05	> 15000	< 0.05	A (GI50 < 50 nM)	< 0.05	≥ 5	< 0.05	12	5	C=CC(=O)Nc1cc(Nc2cc(N3OCC[C@@H]3c3ccccc3)ncn2)c(OC)cc1N1CCC(N(C)C)CC1 [Example 12, N-(2-(4-(dimethylamino)piperidine-1-yl)-4-methoxy-5-((6-((R)-3-phenylisoxazolidine-2-yl)pyrimidine-4-yl)amino)phenyl) acrylamide]	
< 0.05	< 0.05	< 0.05	< 0.05	63						< 0.05	< 0.05	> 15000	< 0.05	A (GI50 < 50 nM)	< 0.05	≥ 5	< 0.05	12	64	C=CC(=O)Nc1cc(Nc2cc(N3OCC[C@@H]3c3ccccc3)ncn2)c(OC)cc1N1CC[C@@H](N(C)C)C1 [Example 13]	
